In the kinase profiling compilation of Christmann-Franck et al. (2016):
Values joined by “and” are separate entries in the source; they are usually repeats but may differ in a detail not shown here. Equal entries are not always repeated.

Legend:
Assay in all cases: radiometric filter-binding kinase assay, Kinase HotSpot
Conditions in all cases: compound 0.5 µM; ATP 10 µM
AKT3 (human) = AKT3 (human) (UniProt Q9Y243)
CAMK2A (human) = CAMK2A (human) (UniProt Q9UQM7)
CAMK2B (human) = CAMK2B (human) (UniProt Q13554)
CAMK2D (human) = CAMK2D (human) (UniProt Q13557)
CAMK2G (human) = CAMK2G (human) (UniProt Q13555)
CDK2 CCNE1 (human) = CDK2 CCNE1 (human) (UniProt P24941+P24864)
CDK4 CCND1 (human) = CDK4 CCND1 (human) (UniProt P24385+P11802)
Chain of CDK4 CCND1 (human) (P11802 whole entry, looked up): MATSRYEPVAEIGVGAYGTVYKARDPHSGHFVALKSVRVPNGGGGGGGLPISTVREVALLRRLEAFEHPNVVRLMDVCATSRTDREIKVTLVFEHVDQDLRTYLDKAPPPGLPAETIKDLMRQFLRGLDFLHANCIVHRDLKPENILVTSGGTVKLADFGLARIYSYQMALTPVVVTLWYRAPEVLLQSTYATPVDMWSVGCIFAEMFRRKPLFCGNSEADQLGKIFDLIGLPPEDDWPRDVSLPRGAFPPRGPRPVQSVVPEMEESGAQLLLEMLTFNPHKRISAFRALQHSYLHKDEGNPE
Chain of CDK4 CCND1 (human) (P24385 whole entry, looked up): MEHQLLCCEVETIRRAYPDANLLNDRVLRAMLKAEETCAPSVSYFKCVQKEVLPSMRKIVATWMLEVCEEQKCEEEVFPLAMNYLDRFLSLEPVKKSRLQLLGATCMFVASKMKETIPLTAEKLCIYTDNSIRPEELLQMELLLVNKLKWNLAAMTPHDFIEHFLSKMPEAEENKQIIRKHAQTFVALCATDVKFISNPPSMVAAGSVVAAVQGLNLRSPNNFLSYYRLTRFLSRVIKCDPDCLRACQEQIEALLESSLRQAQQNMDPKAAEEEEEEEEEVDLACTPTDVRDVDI

CDK4 CCND3 (human) = CDK4 CCND3 (human) (UniProt P30281+P11802)
Chain of CDK4 CCND3 (human) (P11802 whole entry, looked up): as the sequence (P11802 whole entry, looked up) above
Chain of CDK4 CCND3 (human) (P30281 whole entry, looked up): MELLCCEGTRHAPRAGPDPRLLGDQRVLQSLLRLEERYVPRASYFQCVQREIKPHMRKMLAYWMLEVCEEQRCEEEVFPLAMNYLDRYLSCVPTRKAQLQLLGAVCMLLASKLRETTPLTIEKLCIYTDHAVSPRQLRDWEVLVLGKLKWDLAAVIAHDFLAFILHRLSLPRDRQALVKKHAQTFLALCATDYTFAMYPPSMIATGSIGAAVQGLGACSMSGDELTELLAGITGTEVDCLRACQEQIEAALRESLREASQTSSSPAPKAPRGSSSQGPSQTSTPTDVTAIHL

CDK6 CCND3 (human) = CDK6 CCND3 (human) (UniProt P30281+Q00534)
Chain of CDK6 CCND3 (human) (P30281 whole entry, looked up): as above
Chain of CDK6 CCND3 (human) (Q00534 whole entry, looked up): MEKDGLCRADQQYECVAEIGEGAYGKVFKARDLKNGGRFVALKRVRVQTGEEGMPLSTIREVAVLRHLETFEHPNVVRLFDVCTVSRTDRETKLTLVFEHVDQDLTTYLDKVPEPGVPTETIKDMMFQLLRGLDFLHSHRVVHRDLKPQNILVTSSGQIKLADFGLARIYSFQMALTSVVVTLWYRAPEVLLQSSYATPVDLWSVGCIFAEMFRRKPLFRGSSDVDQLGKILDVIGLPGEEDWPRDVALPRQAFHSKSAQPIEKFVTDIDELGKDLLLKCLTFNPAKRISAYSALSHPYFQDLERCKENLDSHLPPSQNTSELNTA

CHEK1 (human) = CHEK1 (human) (UniProt O14757)
Chain of CHEK1 (human) (O14757 whole entry, looked up): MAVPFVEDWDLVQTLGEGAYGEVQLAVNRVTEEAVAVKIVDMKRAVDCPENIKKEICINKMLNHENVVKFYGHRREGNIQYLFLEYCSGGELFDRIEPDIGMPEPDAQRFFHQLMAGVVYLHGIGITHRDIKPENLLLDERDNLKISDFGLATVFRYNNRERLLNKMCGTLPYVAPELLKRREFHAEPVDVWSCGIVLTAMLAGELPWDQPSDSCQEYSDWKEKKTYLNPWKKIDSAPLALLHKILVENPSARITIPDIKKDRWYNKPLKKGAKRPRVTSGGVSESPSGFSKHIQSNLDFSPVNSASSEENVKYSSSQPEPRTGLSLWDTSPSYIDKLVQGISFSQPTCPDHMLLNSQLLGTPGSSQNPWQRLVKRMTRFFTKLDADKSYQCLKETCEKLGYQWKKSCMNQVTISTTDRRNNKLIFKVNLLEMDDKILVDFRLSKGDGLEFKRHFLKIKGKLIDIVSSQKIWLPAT

DAPK2 (human) = DAPK2 (human) (UniProt Q9UIK4)
Chain of DAPK2 (human) (Q9UIK4 whole entry, looked up): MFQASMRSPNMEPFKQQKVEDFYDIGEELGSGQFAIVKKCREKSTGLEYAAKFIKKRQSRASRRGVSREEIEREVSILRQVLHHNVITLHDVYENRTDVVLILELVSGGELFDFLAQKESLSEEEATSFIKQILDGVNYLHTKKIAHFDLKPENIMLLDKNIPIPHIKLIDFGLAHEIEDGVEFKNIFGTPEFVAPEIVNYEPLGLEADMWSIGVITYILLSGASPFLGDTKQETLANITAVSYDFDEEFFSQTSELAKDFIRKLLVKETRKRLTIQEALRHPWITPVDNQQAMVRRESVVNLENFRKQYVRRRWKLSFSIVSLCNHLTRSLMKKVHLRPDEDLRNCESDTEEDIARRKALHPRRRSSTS

DAPK3 (human) = DAPK3 (human) (UniProt O43293)
Chain of DAPK3 (human) (O43293 whole entry, looked up): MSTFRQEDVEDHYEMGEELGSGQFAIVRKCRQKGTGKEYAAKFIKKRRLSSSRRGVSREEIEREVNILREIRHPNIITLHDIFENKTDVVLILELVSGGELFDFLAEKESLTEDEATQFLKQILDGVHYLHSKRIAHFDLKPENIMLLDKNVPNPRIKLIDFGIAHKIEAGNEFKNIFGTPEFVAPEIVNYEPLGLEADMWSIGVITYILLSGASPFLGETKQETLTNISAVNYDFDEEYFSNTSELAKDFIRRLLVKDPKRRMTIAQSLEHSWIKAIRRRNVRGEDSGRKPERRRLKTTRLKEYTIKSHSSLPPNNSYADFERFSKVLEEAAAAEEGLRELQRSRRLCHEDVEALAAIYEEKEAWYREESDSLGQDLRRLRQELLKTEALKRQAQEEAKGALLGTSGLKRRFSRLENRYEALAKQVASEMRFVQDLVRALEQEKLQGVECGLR

EPHB3 (human) = EPHB3 (human) (UniProt P54753)
FRK (human) = FRK (human) (UniProt P42685)
HIPK1 (human) = HIPK1 (human) (UniProt Q86Z02)
IKBKE (human) = IKBKE (human) (UniProt Q14164)
IRAK1 (human) = IRAK1 (human) (UniProt P51617)
ITK (human) = ITK (human) (UniProt Q08881)
JAK3 JH1 JH2 (human) = JAK3 JH1 JH2 (human) (UniProt P52333)
MAP4K2 (human) = MAP4K2 (human) (UniProt Q12851)
MKNK2 (human) = MKNK2 (human) (UniProt Q9HBH9)
PAK1 (human) = PAK1 (human) (UniProt Q13153)
Chain of PAK1 (human) (Q13153 whole entry, looked up): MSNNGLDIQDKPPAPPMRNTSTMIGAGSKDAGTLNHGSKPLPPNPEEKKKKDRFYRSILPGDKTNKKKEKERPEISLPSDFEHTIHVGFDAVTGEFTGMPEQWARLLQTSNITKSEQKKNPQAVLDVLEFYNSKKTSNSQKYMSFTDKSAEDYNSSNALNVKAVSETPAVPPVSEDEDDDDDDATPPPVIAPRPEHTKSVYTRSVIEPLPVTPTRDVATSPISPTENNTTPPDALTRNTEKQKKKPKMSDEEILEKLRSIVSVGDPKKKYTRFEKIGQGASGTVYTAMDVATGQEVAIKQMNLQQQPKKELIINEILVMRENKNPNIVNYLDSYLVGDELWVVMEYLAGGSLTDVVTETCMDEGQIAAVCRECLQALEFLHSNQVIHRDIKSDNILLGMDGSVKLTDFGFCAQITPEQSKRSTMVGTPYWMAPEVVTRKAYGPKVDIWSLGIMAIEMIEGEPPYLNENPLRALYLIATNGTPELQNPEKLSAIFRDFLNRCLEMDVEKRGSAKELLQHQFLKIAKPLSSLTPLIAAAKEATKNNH

PBK (human) = PBK (human) (UniProt Q96KB5)
PNCK (human) = PNCK (human) (UniProt Q6P2M8)
Chain of PNCK (human) (Q6P2M8 whole entry, looked up): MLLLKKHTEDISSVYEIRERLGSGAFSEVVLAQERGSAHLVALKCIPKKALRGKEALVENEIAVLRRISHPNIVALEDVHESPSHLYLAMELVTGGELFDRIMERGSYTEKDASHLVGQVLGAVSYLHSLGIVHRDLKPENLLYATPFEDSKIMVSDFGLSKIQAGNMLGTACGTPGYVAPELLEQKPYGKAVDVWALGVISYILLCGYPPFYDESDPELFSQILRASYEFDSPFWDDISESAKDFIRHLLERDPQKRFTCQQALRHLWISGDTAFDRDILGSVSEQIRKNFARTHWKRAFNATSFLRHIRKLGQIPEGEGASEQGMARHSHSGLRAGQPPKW

PRKACA (human) = PRKACA (human) (UniProt P17612)
PRKCA (human) = PRKCA (human) (UniProt P17252)
PRKD3 (human) = PRKD3 (human) (UniProt O94806)
PRKG1 (human) = PRKG1 (human) (UniProt Q13976)
RET (human) = RET (human) (UniProt P07949)
SGK3 (human) = SGK3 (human) (UniProt Q96BR1)
Chain of SGK3 (human) (Q96BR1 whole entry, looked up): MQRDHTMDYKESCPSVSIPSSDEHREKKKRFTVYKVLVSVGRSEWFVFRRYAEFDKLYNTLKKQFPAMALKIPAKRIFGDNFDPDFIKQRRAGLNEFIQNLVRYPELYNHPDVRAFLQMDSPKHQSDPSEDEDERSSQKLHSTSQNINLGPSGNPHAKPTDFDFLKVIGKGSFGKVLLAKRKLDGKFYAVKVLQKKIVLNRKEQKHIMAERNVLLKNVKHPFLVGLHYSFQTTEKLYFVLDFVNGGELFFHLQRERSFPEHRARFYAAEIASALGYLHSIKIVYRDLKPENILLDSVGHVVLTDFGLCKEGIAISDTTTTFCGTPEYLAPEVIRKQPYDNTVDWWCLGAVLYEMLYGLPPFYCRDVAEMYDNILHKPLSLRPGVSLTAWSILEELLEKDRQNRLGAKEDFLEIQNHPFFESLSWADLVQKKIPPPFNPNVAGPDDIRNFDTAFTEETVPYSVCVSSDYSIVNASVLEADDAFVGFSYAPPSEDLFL

SRPK2 (human) = SRPK2 (human) (UniProt P78362)
SRPK3 (human) = SRPK3 (human) (UniProt Q9UPE1)
STK24 (human) = STK24 (human) (UniProt Q9Y6E0)
STK38 (human) = STK38 (human) (UniProt Q15208)
SYK (human) = SYK (human) (UniProt P43405)
TAOK1 (human) = TAOK1 (human) (UniProt Q7L7X3)
TBK1 (human) = TBK1 (human) (UniProt Q9UHD2)
TEC (human) = TEC (human) (UniProt P42680)
TGFBR2 (human) = TGFBR2 (human) (UniProt P37173)
TSSK2 (human) = TSSK2 (human) (UniProt Q96PF2)
VRK1 (human) = VRK1 (human) (UniProt Q99986)
Chain of VRK1 (human) (Q99986 whole entry, looked up): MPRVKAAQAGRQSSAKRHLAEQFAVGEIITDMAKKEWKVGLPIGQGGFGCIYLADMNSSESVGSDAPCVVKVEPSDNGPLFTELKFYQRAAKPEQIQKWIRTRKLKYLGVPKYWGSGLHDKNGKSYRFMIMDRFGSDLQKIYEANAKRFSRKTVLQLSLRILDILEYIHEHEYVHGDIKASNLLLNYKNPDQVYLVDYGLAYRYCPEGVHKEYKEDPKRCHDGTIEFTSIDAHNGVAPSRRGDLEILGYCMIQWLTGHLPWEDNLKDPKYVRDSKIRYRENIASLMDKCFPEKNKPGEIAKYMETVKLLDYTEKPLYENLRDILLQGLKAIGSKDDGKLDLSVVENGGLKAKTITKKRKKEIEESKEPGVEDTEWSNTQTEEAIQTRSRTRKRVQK

CLK1 (human) = CLK1 (human) (UniProt P49759)

Chain of AKT3 (human) (Q9Y243 whole entry, looked up): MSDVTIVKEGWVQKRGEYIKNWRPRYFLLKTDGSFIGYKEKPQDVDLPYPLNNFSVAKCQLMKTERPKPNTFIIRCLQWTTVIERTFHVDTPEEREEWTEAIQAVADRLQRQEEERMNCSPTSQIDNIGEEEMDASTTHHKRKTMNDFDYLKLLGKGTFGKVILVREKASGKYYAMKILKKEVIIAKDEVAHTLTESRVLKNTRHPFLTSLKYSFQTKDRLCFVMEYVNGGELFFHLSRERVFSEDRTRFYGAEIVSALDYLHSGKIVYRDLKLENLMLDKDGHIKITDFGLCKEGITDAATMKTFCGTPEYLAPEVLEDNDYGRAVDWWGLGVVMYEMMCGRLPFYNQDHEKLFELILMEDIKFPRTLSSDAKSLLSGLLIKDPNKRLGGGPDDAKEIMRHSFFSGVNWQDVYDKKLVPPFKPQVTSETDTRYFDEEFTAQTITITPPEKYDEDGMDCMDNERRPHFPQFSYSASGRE

## Cc1[nH]c(/C=C2\C(=O)Nc3ccc(S(=O)(=O)N(C)c4cccc(Cl)c4)cc32)c(C)c1C(=O)N1CCN(C)CC1
AKT3 (human)
  residual activity: 107%
CAMK2A (human)
  residual activity: 73.8%
CAMK2B (human)
  residual activity: 89.8%
CAMK2D (human)
  residual activity: 68.4%
CAMK2G (human)
  residual activity: 119%
CDK2 CCNE1 (human)
  residual activity: 87%
CDK4 CCND1 (human)
  residual activity: 88.5%
CDK4 CCND3 (human)
  residual activity: 101%
CDK6 CCND3 (human)
  residual activity: 72.8%
CHEK1 (human)
  residual activity: 89.7%
DAPK2 (human)
  residual activity: 111%
DAPK3 (human)
  residual activity: 106%
EPHB3 (human)
  residual activity: 98.6%
FRK (human)
  residual activity: 95.4%
HIPK1 (human)
  residual activity: 104%
IKBKE (human)
  residual activity: 74.2%
IRAK1 (human)
  residual activity: 57.7%
ITK (human)
  residual activity: 87.4%
JAK3 JH1 JH2 (human)
  residual activity: 47%
MAP4K2 (human)
  residual activity: 53.5%
MKNK2 (human)
  residual activity: 106%
PAK1 (human)
  residual activity: 87.7%
PBK (human)
  residual activity: 104%
PNCK (human)
  residual activity: 101%
PRKACA (human)
  residual activity: 100%
PRKCA (human)
  residual activity: 91.9%
PRKD3 (human)
  residual activity: 42.7%
PRKG1 (human)
  residual activity: 93.2% and 97.1%
RET (human)
  residual activity: 23%
SGK3 (human)
  residual activity: 101%
SRPK2 (human)
  residual activity: 60.5%
SRPK3 (human)
  residual activity: 84.8%
STK24 (human)
  residual activity: 49.6%
STK38 (human)
  residual activity: 102%
SYK (human)
  residual activity: 96.7%
TAOK1 (human)
  residual activity: 41.9%
TBK1 (human)
  residual activity: 60.4%
TEC (human)
  residual activity: 86.7%
TGFBR2 (human)
  residual activity: 127%
TSSK2 (human)
  residual activity: 96.3%
VRK1 (human)
  residual activity: 87.3%

## CC(C)N(CCC(=O)c1ccc2ccccc2c1)Cc1ccccc1
AKT3 (human)
  residual activity: 95.8%
CAMK2A (human)
  residual activity: 106%
CAMK2B (human)
  residual activity: 96.6%
CAMK2D (human)
  residual activity: 90%
CAMK2G (human)
  residual activity: 97.7%
CDK2 CCNE1 (human)
  residual activity: 89.2%
CDK4 CCND1 (human)
  residual activity: 103%
CDK4 CCND3 (human)
  residual activity: 92.4%
CDK6 CCND3 (human)
  residual activity: 102%
CHEK1 (human)
  residual activity: 106%
CLK1 (human)
  residual activity: 109%
DAPK2 (human)
  residual activity: 99.6%
DAPK3 (human)
  residual activity: 107%
EPHB3 (human)
  residual activity: 88.5%
FRK (human)
  residual activity: 95.8%
HIPK1 (human)
  residual activity: 106%
IKBKE (human)
  residual activity: 93%
IRAK1 (human)
  residual activity: 102%
ITK (human)
  residual activity: 89.9%
JAK3 JH1 JH2 (human)
  residual activity: 80.9%
MAP4K2 (human)
  residual activity: 98.3%
MKNK2 (human)
  residual activity: 100%
PAK1 (human)
  residual activity: 98.3%
PBK (human)
  residual activity: 108%
PNCK (human)
  residual activity: 102%
PRKCA (human)
  residual activity: 107%
PRKD3 (human)
  residual activity: 98.1%
PRKG1 (human)
  residual activity: 101% and 102%
RET (human)
  residual activity: 101%
SGK3 (human)
  residual activity: 106%
SRPK2 (human)
  residual activity: 99.1%
SRPK3 (human)
  residual activity: 96.5%
STK24 (human)
  residual activity: 96.6%
STK38 (human)
  residual activity: 100%
SYK (human)
  residual activity: 101%
TAOK1 (human)
  residual activity: 94.9%
TBK1 (human)
  residual activity: 92.4%
TEC (human)
  residual activity: 115%
TGFBR2 (human)
  residual activity: 98.8%
TSSK2 (human)
  residual activity: 100%
VRK1 (human)
  residual activity: 95.8%

## Nc1cccc(-c2cc3c(Oc4cccc(O)c4)ncnc3[nH]2)c1
AKT3 (human)
  residual activity: 96.2%
CAMK2A (human)
  residual activity: 115%
CAMK2B (human)
  residual activity: 101%
CAMK2D (human)
  residual activity: 99.8%
CAMK2G (human)
  residual activity: 105%
CDK2 CCNE1 (human)
  residual activity: 90%
CDK4 CCND1 (human)
  residual activity: 88.7%
CDK4 CCND3 (human)
  residual activity: 92.8%
CDK6 CCND3 (human)
  residual activity: 91.3%
CHEK1 (human)
  residual activity: 66.2%
CLK1 (human)
  residual activity: 93%
DAPK2 (human)
  residual activity: 106%
DAPK3 (human)
  residual activity: 94%
EPHB3 (human)
  residual activity: 78.8%
FRK (human)
  residual activity: 6.95%
HIPK1 (human)
  residual activity: 82.7%
IKBKE (human)
  residual activity: 88.1%
IRAK1 (human)
  residual activity: 91.4%
ITK (human)
  residual activity: 102%
JAK3 JH1 JH2 (human)
  residual activity: 123%
MAP4K2 (human)
  residual activity: 55.5%
MKNK2 (human)
  residual activity: 67.5%
PAK1 (human)
  residual activity: 88%
PBK (human)
  residual activity: 93.9%
PNCK (human)
  residual activity: 98.2%
PRKACA (human)
  residual activity: 92.3%
PRKCA (human)
  residual activity: 95.6%
PRKD3 (human)
  residual activity: 91%
PRKG1 (human)
  residual activity: 103%
RET (human)
  residual activity: -0.229%
SGK3 (human)
  residual activity: 117%
SRPK2 (human)
  residual activity: 99.1%
SRPK3 (human)
  residual activity: 101%
STK24 (human)
  residual activity: 64.2%
SYK (human)
  residual activity: 36.1%
TAOK1 (human)
  residual activity: 142%
TBK1 (human)
  residual activity: 92.9%
TEC (human)
  residual activity: 108%
TGFBR2 (human)
  residual activity: 42.6%
TSSK2 (human)
  residual activity: 95.6%
VRK1 (human)
  residual activity: 81.6%
